Ends that are not written are not given here.
Key:
[1] = tested on: denervated tibialis anterior and medial gastrocnemius muscles; experiment: Mouse denervation atrophy model, agonists subcutaneously 2x daily with theophylline (FIG. 1); type: in vivo; details: male mice, right sciatic nerve denervation; 0.1 and 0.3 mg/kg s.c. 2x daily + theophylline 30 mg/kg i.p. 2x daily, nine days; versus saline
Procedure: Legend for the X-axis: A: Saline, B: VPAC1R agonist (0.1 mg/kg)+T, C: VPAC1R agonist (0.3 mg/kg)+T, D: VPAC2R agonist (0.1 mg/kg)+T, E: VPAC2R agonist (0.3 mg/kg)+T, F: PACAP-38 (0.1 mg/kg)+T, G: PACAP-38 (0.3 mg/kg)+T.
(VPAC1R agonist), the VPAC2 receptor selective agonist, Ro 25-1553 (VPAC2R agonist), or the VPAC1/VPAC2 receptor nonselective agonist, PACAP-38. Following denervation of the right sciatic nerve, male mice were injected subcutaneously in the midscapular region twice daily, with either the above indicated agents at the doses indicated in FIGS. 1A and 1B or vehicle control (physiological saline) for nine days. These agonists were co-administered with twice daily intra-peritoneal dosing of the phosphodiesterase inhibitor theophylline (T-30 mg/kg) (included to increase the magnitude and the duration of action of cAMP signals induced by the VPAC receptor agonists). On day nine, the medial gastrocnemius and tibialis anterior muscles were removed and weighed to determine the degree of atrophy. […] Statistical significance of the results were determined using ANCOVA (Douglas C. Montgomery, Design and Analysis of Experiments, John Wiley and Sons, New York (2nd ed. 1984)).
The sciatic nerve denervation atrophy model involves anesthetizing the animal followed by the surgical removal of a short segment of either the right or left sciatic nerve, e.g. in mice the sciatic nerve is isolated approximately at the midpoint along the femur and a 3-5 mm segment is removed. This denervates the lower hind limb musculature resulting in atrophy of these muscles. Typically, innervation to the biceps femoris is left intact to provide satisfactory motion of the knee for virtually normal ambulation. Typically, in untreated animals, muscle mass of the denervated muscles is reduced 30-50% ten days following denervation. Following denervation, test compounds are administered e.g., by injection or by continuous infusion, e.g. via implantation of an osmotic minipump (e.g. Alza, Palo Alto, Calif.), to determine their effect on denervation induced skeletal muscle atrophy. At various times following denervation, the animals are euthanized and lower leg muscles are dissected rapidly from both the denervated and nondenervated legs, the muscles, cleaned of tendons and connective tissue, are weighed. The extent of atrophy in the affected muscles is analyzed, for example, by measuring muscle mass, muscle cross-sectional area, myofiber cross-sectional area or contractile protein content.

[2] = tested on: glucocorticoid-induced atrophied tibialis anterior and medial gastrocnemius muscles; experiment: Mouse glucocorticoid (dexamethasone)-induced atrophy model (FIG. 3); type: in vivo; details: male mice, dexamethasone 1.2 mg/kg/d in drinking water; 0.1 and 0.3 mg/kg s.c. 2x daily + theophylline 30 mg/kg i.p., nine days
Procedure: Legend for the X-axis: 1: Saline+Dexamethasone (1.2 mg/kg/day included in the drinking water), 2: PACAP-38 (0.1 mg/kg)+Dexamethasone+T, 3: PACAP-38 (0.3 mg/kg)+Dexamethasone+T, 4: VPAC1R agonist (0.1 mg/kg)+Dexamethasone+T, 5: VPAC1R agonist (0.3 mg/kg)+Dexamethasone+T, 6: VPAC2R agonist (0.1 mg/kg)+Dexamethasone+T, 7: VPAC2R agonist (0.3 mg/kg)+Dexamethasone+T.
(VPAC1R agonist), the VPAC2 receptor selective agonist, Ro 25-1553 (VPAC2R agonist), or the VPAC1/VPAC2 receptor nonselective agonist, PACAP-38. Following the addition of the glucocorticoid, dexamethasone to the drinking water (1.2 mg/kg/d), male mice were injected subcutaneously in the midscapular region twice daily, with either the above indicated agents at the doses indicated in FIGS. 3A and 3B or vehicle control (physiological saline) for nine days. These agonists were co-administered with twice daily intra-peritoneal dosing of the phosphodiesterase inhibitor theophylline (T—30 mg/kg). Nine days following the initiation of dosing of the VPAC receptor agonists and dexamethasone, the medial gastrocnemius and tibialis anterior muscles were removed and weighed to determine the degree of atrophy. […] Statistical significance of the results were determined using ANCOVA.
The glucocorticoid induced atrophy model involves the administration of a glucocorticoid to the test animal, e.g. 1.2 mg/kg/day of dexamethasone in the drinking water. Typically, in untreated animals, skeletal muscle mass is reduced 30-50% following ten days of dexamethasone administration. Concomitantly with, or following glucocorticoid administration, test compounds are administered e.g., by injection or by continuous infusion to determine their effect on glucocorticoid induced skeletal muscle atrophy. At various times following glucocorticoid administration, the extent of atrophy in the affected muscles is analyzed as described above for the denervation model.

VPAC1 receptor = target: T1, VPAC1 receptor (Homo sapiens, UniProt P32241); details: relative to PACAP38; cited from earlier work
T1 sequence (P32241 31-457): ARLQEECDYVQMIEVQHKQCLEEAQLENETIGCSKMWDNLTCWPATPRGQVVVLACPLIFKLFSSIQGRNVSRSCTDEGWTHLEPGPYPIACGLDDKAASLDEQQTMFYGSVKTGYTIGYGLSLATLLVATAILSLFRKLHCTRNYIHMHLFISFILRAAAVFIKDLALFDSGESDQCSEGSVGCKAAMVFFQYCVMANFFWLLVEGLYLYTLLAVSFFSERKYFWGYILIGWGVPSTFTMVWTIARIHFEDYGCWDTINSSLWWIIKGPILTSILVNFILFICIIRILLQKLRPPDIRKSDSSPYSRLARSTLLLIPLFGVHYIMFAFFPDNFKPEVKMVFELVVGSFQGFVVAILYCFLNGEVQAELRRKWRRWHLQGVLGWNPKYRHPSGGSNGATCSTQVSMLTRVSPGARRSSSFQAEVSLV

[3] = tested on: denervated and non-denervated (control) tibialis anterior and medial gastrocnemius muscles; experiment: Mouse denervation atrophy model, continuous infusion by osmotic minipump (FIG. 2); type: in vivo; details: male mice, continuous infusion by osmotic minipump 0.3, 1, 3 mg/kg daily, no theophylline, day nine
Procedure: Legend for the X-axis: A: water infused, B: VPAC1R agonist (0.3 mg/kg), C: VPAC1R agonist (1 mg/kg), D: VPAC1R agonist (3 mg/kg), E: VPAC2R agonist (0.3 mg/kg), F: VPAC2R agonist (1 mg/kg), G: VPAC2R agonist (3 mg/kg), H: PACAP-38 (0.3 mg/kg), I: PACAP-38 (1 mg/kg), PACAP-38 (3 mg/kg).
(VPAC1R agonist), the VPAC2 receptor selective agonist, Ro 25-1553 (VPAC2R agonist), or the VPAC1/VPAC2 receptor nonselective agonist, PACAP-38. Following denervation of the right sciatic nerve, male mice were dosed with the above indicated agents or vehicle control (physiological saline) by continuous infusion using an ALZeT osmotic minipump at 5 μl/hr until the end of the experimental period. The daily delivered dose of the agents are as indicated on FIGS. 2A and 2B. Minipump implantation was performed at the same time as the sciatic nerve denervation. On day nine the medial gastrocnemius and tibialis anterior muscles were removed and weighed to determine the degree of atrophy. […] Statistical significance of the results were determined using ANCOVA.
(§1) The sciatic nerve denervation atrophy model involves anesthetizing the animal followed by the surgical removal of a short segment of either the right or left sciatic nerve, e.g. in mice the sciatic nerve is isolated approximately at the midpoint along the femur and a 3-5 mm segment is removed. This denervates the lower hind limb musculature resulting in atrophy of these muscles. Typically, innervation to the biceps femoris is left intact to provide satisfactory motion of the knee for virtually normal ambulation. Typically, in untreated animals, muscle mass of the denervated muscles is reduced 30-50% ten days following denervation. […] The extent of atrophy in the affected muscles is analyzed, for example, by measuring muscle mass, muscle cross-sectional area, myofiber cross-sectional area or contractile protein content.

[4] = tested on: casting-induced atrophied tibialis anterior muscle and normal medial gastrocnemius muscle; experiment: Mouse disuse (casting) atrophy model (FIG. 4); type: in vivo; details: male mice, right hind leg cast; 0.03, 0.1, 0.3 mg/kg s.c. 2x daily + theophylline 30 mg/kg i.p., nine days
Procedure: (§2) Legend for the X-axis: A: Saline, B: VPAC2R agonist (0.03 mg/kg)+T, C: VPAC2R agonist (0.1 mg/kg)+T, D: VPAC2R agonist (0.3 mg/kg)+T.
Following casting of the right hind leg, male mice were injected subcutaneously in the midscapular region twice daily, with either the above indicated agent at the doses indicated in FIGS. 4A and 4B or vehicle control (physiological saline) for nine days. The VPAC2R agonist was co-administered with twice daily intra-peritoneal dosing of the phosphodiesterase inhibitor theophylline (T—30 mg/kg). On day nine, the medial gastrocnemius and tibialis anterior muscles were removed and weighed to determine the degree of atrophy. […] Statistical significance of the results were determined using ANCOVA.
The leg casting disuse atrophy model involves casting one hind leg of an animal from the knee down through the foot. Typically, muscle mass is reduced 20-40% after ten days of casting. Following casting, test compounds are administered by injection or by continuous infusion via implantation of an osmotic minipump (e.g. Alza, Palo Alto, Calif.) to determine their effect on leg casting induced skeletal muscle atrophy. At various times following leg casting, the extent of atrophy in the affected muscles is analyzed as described above for the denervation model.

[5] = tested on: denervated tibialis anterior and extensor digitorum longus (EDL) muscles; experiment: Rat denervation atrophy model (FIG. 5); type: in vivo; details: male rats, right sciatic nerve denervation; 0.03, 0.1, 0.3 mg/kg s.c. 2x daily + theophylline 30 mg/kg i.p., nine days
Procedure: as §2
Following denervation of the right sciatic nerve, male rats were injected subcutaneously in the midscapular region twice daily, with either the VPAC2R receptor agonist at the doses indicated in FIGS. 5A and 5B or vehicle control (physiological saline) for nine days. The VPAC2R receptor agonist was co-administered with twice daily intra-peritoneal dosing of the phosphodiesterase inhibitor theophylline (T—30 mg/kg). On day nine, the tibialis anterior and extensor digitorum longus (EDL) muscles were removed and weighed to determine the degree of atrophy. […] Statistical significance of the results were determined using ANCOVA.
as §1, with “muscles.” for “muscles. Typically, innervation to the biceps femoris is left intact to provide satisfactory motion of the knee for virtually normal ambulation. Typically, in untreated animals, muscle mass of the denervated muscles is reduced 30-50% ten days following denervation.”

[6] = tested on: atrophy of the skeletal muscle of the entire body due to disuse; experiment: Prophylactic treatment of skeletal muscle atrophy in a comatose subject (Example 11); type: in vivo; details: human 50 kg, 3 ml of 500 mg/ml with D,L lactic and glycolic acid copolymer i.m. once each month
Procedure: A human subject weighing 50 kg is admitted to the hospital in a comatose state. The subject is treated to prevent atrophy of the skeletal muscle of the entire body due to disuse while in the comatose state. Specifically, once each month while in the coma, the subject is administered, via intramuscular injection, 3 ml of an aqueous solution of pH 6.0 comprising the following: […]

VPAC2 receptor = target: T2, VPAC2 receptor (Homo sapiens, UniProt P41587); details: relative to PACAP38; cited from earlier work
T2 sequence (P41587 24-438): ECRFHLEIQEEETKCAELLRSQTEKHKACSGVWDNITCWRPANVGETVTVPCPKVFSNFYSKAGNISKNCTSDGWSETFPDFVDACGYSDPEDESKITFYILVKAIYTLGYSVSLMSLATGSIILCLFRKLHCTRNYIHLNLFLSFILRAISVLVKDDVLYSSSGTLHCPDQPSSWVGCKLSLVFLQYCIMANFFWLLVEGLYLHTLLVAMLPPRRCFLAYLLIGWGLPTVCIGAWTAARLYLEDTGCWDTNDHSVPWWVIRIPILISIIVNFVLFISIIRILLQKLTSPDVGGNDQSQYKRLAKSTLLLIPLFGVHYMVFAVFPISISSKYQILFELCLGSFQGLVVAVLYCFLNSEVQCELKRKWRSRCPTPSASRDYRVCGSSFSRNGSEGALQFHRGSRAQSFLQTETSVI

skeletal muscle atrophy = experiment: Animal models of skeletal muscle atrophy, summary of FIGS. 1-5; type: in vivo; details: theophylline alone

Molecule: [K^15, R^16, L^27VIP(1-7), GRF(8-27)-NH2]
- atrophy of the denervated medial gastrocnemius muscle (muscle weight, FIG. 1B) [1]: inhibited atrophy
- muscle atrophy of the tibialis anterior induced by glucocorticoid administration (FIG. 3A) [2]: inhibited muscle atrophy
- potency as VPAC1 receptor selective agonist (VPAC1 receptor): potency similar to PACAP38

Molecule: Ro 25-1553
- atrophy of the denervated medial gastrocnemius muscle (muscle weight, FIG. 1B) [1]: inhibited atrophy
- atrophy of the denervated tibialis anterior muscle (muscle weight, FIG. 1A) [1]: inhibited atrophy
- atrophy of the denervated tibialis anterior muscle (muscle weight, FIG. 2A) ([3]; sciatic denervation): inhibited atrophy
- hypertrophy of the non-denervated (control) medial gastrocnemius muscle (FIG. 2B) [3]: induced hypertrophy
- hypertrophy of the non-denervated (control) tibialis anterior muscle (FIG. 2A) [3]: induced hypertrophy
- muscle atrophy of the medial gastrocnemius induced by glucocorticoid administration (FIG. 3B) [2]: inhibited muscle atrophy
- muscle atrophy of the tibialis anterior induced by glucocorticoid administration (FIG. 3A) [2]: inhibited muscle atrophy
- disuse-induced atrophy of the tibialis anterior muscle (FIG. 4A) [4]: inhibited disuse-induced atrophy
- hypertrophy of the medial gastrocnemius muscle (normal, FIG. 4B) [4]: induced hypertrophy
- atrophy of the denervated EDL muscle (FIG. 5B) [5]: inhibited atrophy
- atrophy of the denervated tibialis anterior muscle (FIG. 5A) [5]: inhibited atrophy
- skeletal muscle mass and physical therapy needs [6]: measurable preservation of skeletal muscle mass and reduced physical therapy needs
- potency as VPAC2 receptor selective agonist (VPAC2 receptor): potency similar to PACAP38

Molecule: PACAP-38 (HSDGIFTDSYSRYRKQMAVKKYLAAVLGKRYKQRVKNK; ends and bridges not checked; UniProt P18509 132-169, looked up)
- atrophy of the denervated medial gastrocnemius muscle (muscle weight, FIG. 1B) [1]: inhibited atrophy
- atrophy of the denervated tibialis anterior muscle (muscle weight, FIG. 1A) [1]: inhibited atrophy
- muscle atrophy of the medial gastrocnemius induced by glucocorticoid administration (FIG. 3B) [2]: inhibits muscle atrophy

Molecule: Cn1c(=O)c2[nH]cnc2n(C)c1=O [Theophylline, theophylline]
- effect of theophylline administered by itself in the atrophy models (skeletal muscle atrophy): no effect

Source: patent US6750194B1, “Methods of identifying compounds for regulating muscle mass or function using vasoactive intestinal peptide receptors” (The Procter & Gamble Company, priority 2000, dated 2004)
